Data published in patent publication US20260286396A1, “AXL KNOCK OUT CAR T CELLS AND METHODS FOR USE THEREOF” (priority 2023, published 2026).

System: CART19 cells
Assay: RNA sequencing of CART19 cells with Ingenuity pathway analysis (pathways, upstream regulators)
Type: cell-based, human
Details: for Expr Log Ratio / Activation Z-Score / Predicted Activation State: 30 nM, 24 hours vs vehicle
Description: CART19 cells were isolated using CD4 and CD8 microbeads to […] the JeKo-1 target cells; this isolation step was performed twice to eliminate the possible contamination of JeKo-1 cells. RNA was isolated from the CART19 cells using QIAGEN RNEASY® Plus Mini Kit. RNA was further treated with DNase I (QIAGEN) and purified using RNA Clean & Concentrator (Zymo Research). […] The fastq files were viewed in FastQC to check for quality (Cox et al., Mol Ther., 29 (4): 1529-1540, 2020). After verifying the lack of adapter sequences with FastQC, Cutadapt (Martin, EMBnet, 17:10-12, 2011) was used to filter for reads greater than 32 base pairs. Output files were re-checked for quality using FastQC. The latest human reference genome (GRCh38.p13) was downloaded from NCBI. Genome index files were generated using STAR (Cox et al. 2020, supra, and Dobin et al., Bioinformatics, 29:15-21, 2012). Paired end reads from fastq files were mapped to the genome for each condition. HTSeq was used to generate expression counts for each gene (Cox et al. 2020, supra; and Putri et al., Bioinformatics, 38:2943-2945, 2022). […] The disruption efficiency of the CRISPR/Cas9 GM-CSF knockout was determined using targeted sequencing through PCR and TIDE analysis (software available at tide.nki.nl) as described elsewhere (Sakemura et al. 2021, supra).
RNA sequencing of CART19 cells was then performed. […] Data were analyzed with the use of QIAGEN Ingenuity Pathway Analysis (IPA) (digitalinsights.qiagen.com/IPA; Krämer et al., Bioinformatics 30 (4): 523-530, 2014).

[1] = CART19+JeKo-1, 30 nM TP-0903 vs vehicle, 24 h
[2] = CART19+JeKo-1, 30 nM TP-0903 vs vehicle, 24 h, flag bias
[3] = Upstream Regulator BRD4 (second entry, r376)

## CN1CCN(Cc2ccc(Nc3ncc(Cl)c(Nc4ccccc4S(=O)(=O)N(C)C)n3)cc2)CC1 [TP-0903, Dubermatinib]
[1]
  upstream regulator SREBF1 Predicted Activation State: inhibited
  upstream regulator SREBF2 Activation Z-Score: −1.433
  upstream regulator SUCNR1 Activation Z-Score: 0
  upstream regulator TEAD3 Activation Z-Score: −1.633
  upstream regulator TERT Activation Z-Score: −1.412
  upstream regulator TGFB1 Activation Z-Score: −1.429
  upstream regulator TGFB3 Activation Z-Score: −0.894
  upstream regulator TGFBR2 Activation Z-Score: 0.658
  upstream regulator TLR2 Activation Z-Score: −1.417
  upstream regulator TLR7 Predicted Activation State: inhibited
  upstream regulator TNFRSF4 Activation Z-Score: −1.098
  upstream regulator TNFSF15 Activation Z-Score: −0.425
  upstream regulator TRAF3 Activation Z-Score: −0.656
  upstream regulator TREM1 Activation Z-Score: −0.093
  upstream regulator VEGF Activation Z-Score: −0.81
  upstream regulator WNT1 Activation Z-Score: −1.387
  upstream regulator YAP1 Activation Z-Score: 0.591
[2]
  upstream regulator COMMD1 Activation Z-Score: 2
  upstream regulator CSF Activation Z-Score: −0.816
  upstream regulator EGLN Activation Z-Score: 1.793
  upstream regulator IKZF2 Activation Z-Score: 0.447
  upstream regulator MIR-17-5P (AND OTHER MIRNAS W/SEED AAAGUGC) Activation Z-Score: 1.449
  upstream regulator MIR-450A-5P (AND OTHER MIRNAS W/SEED UUUGCGA) Activation Z-Score: 2.236
  upstream regulator MLXIPL Activation Z-Score: −3.101
  upstream regulator PAF1 Activation Z-Score: 0.762
  upstream regulator TLR7 Activation Z-Score: −2
  upstream regulator TPH1 Activation Z-Score: −1.89
Upstream Regulator ADAM8
  Expr Log Ratio: −0.008
Upstream Regulator ADRB
  Activation Z-Score: 1.616
Upstream Regulator AHR
  Activation Z-Score: −0.104
  Expr Log Ratio: −0.083
Upstream Regulator AKT
  Activation Z-Score: −2.79
  Predicted Activation State: inhibited
Upstream Regulator AREG
  Activation Z-Score: −2.287
  Expr Log Ratio: 1.429
  Predicted Activation State: inhibited
Upstream Regulator BHLHE40
  Activation Z-Score: −0.158
  Expr Log Ratio: 0.043
Upstream Regulator BIRC5
  Expr Log Ratio: −0.028
Upstream Regulator BNIP3L
  Activation Z-Score: −1.463
  Expr Log Ratio: −0.47
Upstream Regulator BRD4 (first entry, r300, no Expr Log Ratio)
  Activation Z-Score: −0.213
[3]
  Activation Z-Score: −2.16
  Expr Log Ratio: −0.067
  Predicted Activation State: inhibited
Upstream Regulator CASP8
  Activation Z-Score: 1.72
  Expr Log Ratio: 0.141
Upstream Regulator CD3
  Activation Z-Score: −1.272
Upstream Regulator CD40
  Activation Z-Score: −0.284
  Expr Log Ratio: −0.283
Upstream Regulator CDKN2A
  Activation Z-Score: 0.421
  Expr Log Ratio: −0.27
Upstream Regulator CREB1
  Activation Z-Score: −0.611
  Expr Log Ratio: −0.112
Upstream Regulator CREM
  Activation Z-Score: 0.286
  Expr Log Ratio: 0.351
Upstream Regulator CSF1
  Activation Z-Score: −1.71
  Expr Log Ratio: −0.377
Upstream Regulator CSF2
  Activation Z-Score: −2.255
  Expr Log Ratio: −0.066
  Predicted Activation State: inhibited
Upstream Regulator CTNNB1
  Activation Z-Score: −2.082
  Expr Log Ratio: −0.154
  Predicted Activation State: inhibited
Upstream Regulator DDIT4
  Activation Z-Score: −0.816
  Expr Log Ratio: −0.248
Upstream Regulator EGF
  Activation Z-Score: −1.744
Upstream Regulator EIF2S1
  Expr Log Ratio: 0.079
Upstream Regulator ELAVL1
  Activation Z-Score: −1.431
  Expr Log Ratio: 0.045
Upstream Regulator EPAS1
  Activation Z-Score: −0.365
  Expr Log Ratio: −0.784
Upstream Regulator ETS1
  Activation Z-Score: −1.485
  Expr Log Ratio: 0.129
Upstream Regulator FOXP3
  Activation Z-Score: 1.094
  Expr Log Ratio: −0.21
Upstream Regulator GNAQ
  Expr Log Ratio: −0.381
Upstream Regulator GNAS
  Activation Z-Score: 0.898
  Expr Log Ratio: 0.075
Upstream Regulator HDL-CHOLESTEROL
  Activation Z-Score: 1.89
Upstream Regulator HIF1A
  Activation Z-Score: −1.763
  Expr Log Ratio: 0.181
Upstream Regulator HRAS
  Activation Z-Score: −1.187
Upstream Regulator ID2
  Activation Z-Score: 1.609
  Expr Log Ratio: 0.114
Upstream Regulator IFN BETA
  Activation Z-Score: −0.892
Upstream Regulator IFNG
  Activation Z-Score: −2.044
  Expr Log Ratio: −0.559
  Predicted Activation State: inhibited
Upstream Regulator IGG
  Activation Z-Score: 1.765
Upstream Regulator IL1B
  Activation Z-Score: −1.164
  Expr Log Ratio: 0.19
Upstream Regulator IL2
  Activation Z-Score: −1.669
  Expr Log Ratio: −0.397
Upstream Regulator IL3
  Activation Z-Score: −1.125
  Expr Log Ratio: −0.843
Upstream Regulator IL4
  Activation Z-Score: −3.271
  Expr Log Ratio: −1.068
  Predicted Activation State: inhibited
Upstream Regulator IL5
  Activation Z-Score: −1.165
  Expr Log Ratio: −1.157
Upstream Regulator IL6
  Activation Z-Score: −2.441
  Expr Log Ratio: −1.319
  Predicted Activation State: inhibited
Upstream Regulator IL13
  Activation Z-Score: −1.489
  Expr Log Ratio: 0
Upstream Regulator IL17A
  Activation Z-Score: 0.354
  Expr Log Ratio: −0.356
Upstream Regulator IL33
  Activation Z-Score: −1.508
Upstream Regulator IMMUNOGLOBULIN
  Activation Z-Score: 0.465
Upstream Regulator ITGA11
  Expr Log Ratio: −0.167
Upstream Regulator ITGA11, flag bias
  Activation Z-Score: −1
Upstream Regulator KLF11
  Activation Z-Score: −2.333
